Data: BindingDB's records for PubMed 11082457 (Centre De Recherches De Croissy, 2000)
pKi: −log10 of the molar value. “And” between values parts separate entries of the source, which are not always exact repeats. Equal entries are not always repeated.

Key:
[1] = target: T1, Alpha-2C adrenergic receptor (Homo sapiens, UniProt P18825)
T1 sequence (P18825 whole entry): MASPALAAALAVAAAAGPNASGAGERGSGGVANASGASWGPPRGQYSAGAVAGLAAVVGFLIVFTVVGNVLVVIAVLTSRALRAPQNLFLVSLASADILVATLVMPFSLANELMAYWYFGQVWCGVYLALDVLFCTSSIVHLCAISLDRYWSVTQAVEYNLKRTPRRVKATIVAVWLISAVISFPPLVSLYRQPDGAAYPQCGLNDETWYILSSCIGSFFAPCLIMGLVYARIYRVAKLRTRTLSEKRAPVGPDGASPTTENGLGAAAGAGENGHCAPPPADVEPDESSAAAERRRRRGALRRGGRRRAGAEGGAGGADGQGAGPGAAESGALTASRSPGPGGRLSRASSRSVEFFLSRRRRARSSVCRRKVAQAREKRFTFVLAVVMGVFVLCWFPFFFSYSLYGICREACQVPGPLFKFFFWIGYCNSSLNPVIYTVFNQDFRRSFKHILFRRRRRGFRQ

[2] = target: T2, Alpha-2A adrenergic receptor [16-465] (Rattus norvegicus, UniProt P22909)
T2 construct: 16-465
T2 sequence (P22909 whole entry): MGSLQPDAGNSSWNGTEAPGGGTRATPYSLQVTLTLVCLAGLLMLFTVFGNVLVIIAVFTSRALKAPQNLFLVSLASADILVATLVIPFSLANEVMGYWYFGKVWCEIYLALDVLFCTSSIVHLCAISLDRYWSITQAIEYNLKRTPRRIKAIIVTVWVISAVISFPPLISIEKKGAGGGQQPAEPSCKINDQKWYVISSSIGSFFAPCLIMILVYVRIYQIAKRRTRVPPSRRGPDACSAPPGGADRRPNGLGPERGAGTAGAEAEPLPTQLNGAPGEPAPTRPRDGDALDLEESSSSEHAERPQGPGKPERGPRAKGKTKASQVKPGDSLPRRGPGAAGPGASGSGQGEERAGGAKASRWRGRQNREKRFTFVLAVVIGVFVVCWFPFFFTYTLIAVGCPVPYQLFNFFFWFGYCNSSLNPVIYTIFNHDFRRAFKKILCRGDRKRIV

[3] = target: T3, Alpha-2A adrenergic receptor (Homo sapiens, UniProt P08913)
T3 sequence (P08913 whole entry): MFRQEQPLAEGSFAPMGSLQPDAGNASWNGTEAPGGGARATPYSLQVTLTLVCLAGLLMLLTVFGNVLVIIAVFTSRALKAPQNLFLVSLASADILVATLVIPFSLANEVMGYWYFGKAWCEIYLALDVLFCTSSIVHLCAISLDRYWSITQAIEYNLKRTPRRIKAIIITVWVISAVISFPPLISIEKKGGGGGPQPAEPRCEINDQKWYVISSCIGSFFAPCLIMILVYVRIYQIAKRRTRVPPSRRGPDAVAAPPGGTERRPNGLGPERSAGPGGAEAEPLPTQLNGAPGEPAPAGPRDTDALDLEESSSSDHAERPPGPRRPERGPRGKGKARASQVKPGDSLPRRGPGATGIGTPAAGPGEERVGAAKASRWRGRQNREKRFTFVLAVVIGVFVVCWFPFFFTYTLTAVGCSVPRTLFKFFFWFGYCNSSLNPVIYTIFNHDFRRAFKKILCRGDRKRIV

[4] = target: Beta-2 adrenergic receptor (Homo sapiens, UniProt P07550)
[5] = target: Beta-1 adrenergic receptor (Homo sapiens, UniProt P08588)
Beta-1 adrenergic receptor, sequence (P08588 whole entry): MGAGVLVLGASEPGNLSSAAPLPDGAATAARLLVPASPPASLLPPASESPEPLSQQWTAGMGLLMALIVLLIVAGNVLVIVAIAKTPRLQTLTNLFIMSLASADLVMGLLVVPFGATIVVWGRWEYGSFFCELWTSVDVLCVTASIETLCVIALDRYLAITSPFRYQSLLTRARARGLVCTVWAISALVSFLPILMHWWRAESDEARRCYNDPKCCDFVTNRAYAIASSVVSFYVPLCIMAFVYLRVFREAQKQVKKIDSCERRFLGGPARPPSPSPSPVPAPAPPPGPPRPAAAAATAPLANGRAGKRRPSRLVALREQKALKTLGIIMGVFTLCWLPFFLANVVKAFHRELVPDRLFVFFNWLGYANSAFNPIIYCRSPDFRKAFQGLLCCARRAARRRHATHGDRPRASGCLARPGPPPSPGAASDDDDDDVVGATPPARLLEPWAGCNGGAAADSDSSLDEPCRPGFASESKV

Beta-2 adrenergic receptor, sequence (P07550 whole entry): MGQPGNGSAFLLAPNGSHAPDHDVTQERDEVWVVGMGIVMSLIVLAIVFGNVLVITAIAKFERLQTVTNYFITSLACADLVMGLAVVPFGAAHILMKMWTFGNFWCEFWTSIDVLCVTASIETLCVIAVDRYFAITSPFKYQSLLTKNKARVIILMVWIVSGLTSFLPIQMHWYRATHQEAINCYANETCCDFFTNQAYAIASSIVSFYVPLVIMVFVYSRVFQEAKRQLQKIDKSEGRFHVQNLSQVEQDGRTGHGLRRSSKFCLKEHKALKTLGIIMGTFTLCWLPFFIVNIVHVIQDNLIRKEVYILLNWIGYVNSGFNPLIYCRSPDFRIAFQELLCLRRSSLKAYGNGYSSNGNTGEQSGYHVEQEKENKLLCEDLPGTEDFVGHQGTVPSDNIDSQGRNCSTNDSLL

SMILES	pKi [1]	pKi [2]	pKi [3]	pKi [4]	pKi [5]
Cc1cccc([C@@H](C)c2cnc[nH]2)c1C	7.82 and 8.60				
NC1=NC2(CCc3ccccc3C2)CO1 (stereo not given) [S18616]		9.60	9.25 and 9.20 and 9.50	6.00	6.00
